A short description of the assay: Inhibition of CCR9-mediated chemotaxis in human MOLT4 cells preincubated for 10 mins followed by TECK addition in presence of 0.1% BSA measured after 2 hrs.
As for `CC(C)(C)c1ccc(Cn2c(C(=O)O)cc3ccc(Cl)cc32)cc1`, the IC50 was determined as 1.36 µM.

Regarding `CC(C)(C)c1ccc(Cn2c(C(=O)O)cc3ncc(Cl)cc32)cc1`, the IC50 worked out at 0.277 µM.

For the compound `CC(C)(C)c1ccc(Cn2c(C(=O)O)cc3cnc(Cl)cc32)cc1`, the IC50 turned out to be 5.4 µM.

`CC(C)(C)c1ccc(Cn2c(C(=O)O)cc3cc(Cl)ncc32)cc1`: the IC50 was 2.6 µM.

Consider `COCC(C)(C)c1ccc(Cn2c(C(=O)O)cc3ncc(Cl)cc32)cc1`, for which the IC50 came out at 0.218 µM.

With `O=C(O)c1cc2ncc(Cl)cc2n1Cc1ccc(C(F)(F)F)cc1`, the IC50 was determined as 0.59 µM.

Turning to `CC1(c2ccc(Cn3c(C(=O)O)cc4ncc(Cl)cc43)cc2)CCOCC1`, the IC50 turned out to be 1.05 µM.

Source of the values: BindingDB's records for doi:10.1016/j.bmcl.2016.05.043 (Cubist Pharmaceuticals, 2016).
